Data: paper PMC8703611, “Cyclic Peptides from the Soft Coral-Derived Fungus Aspergillus sclerotiorum SCSIO 41031” (Marine Drugs, 2021)

Assays:
[1] = Cytotoxicity against HONE1-EBV, CCK-8 method; format: cell-based, human; conditions: CCK-8, OD at 450 nm, 72 h, average values of three parallel experiments
Procedure: (§1) The THP-1, HONE1, and HONE1-EBV cell lines were obtained from Sun Yat-sen University Cancer Center. The cytotoxic activity was determined by the CCK-8 (Dojindo) method. Briefly, THP-1, HONE1, and HONE1-EBV cells were cultured in DMEM media supplemented with 10% […] (FBS), respectively. The cells were seeded at a density of 400 to 800 cells/well in 384-well plates and then incubated with the compounds in a gradient concentration (50.0, 10.0, 2.0, 0.4, and 0.08 μM) or with a solvent control for 72 h, followed by the addition of CCK-8 reagent. The OD value of each well was measured at 450 nm using a SpectraMax M5 Microplate Reader (Molecular Devices). Sorafenib functioned as the positive control. Dose–response curves were plotted to determine IC50 based upon the average values of three parallel experiments using Prism 5.0.

acetylcholinesterase = acetylcholinesterase (Homo sapiens, UniProt P22303); assay: AChE inhibition, modified Ellman's method; format: biochemical
acetylcholinesterase, sequence (P22303 32-614): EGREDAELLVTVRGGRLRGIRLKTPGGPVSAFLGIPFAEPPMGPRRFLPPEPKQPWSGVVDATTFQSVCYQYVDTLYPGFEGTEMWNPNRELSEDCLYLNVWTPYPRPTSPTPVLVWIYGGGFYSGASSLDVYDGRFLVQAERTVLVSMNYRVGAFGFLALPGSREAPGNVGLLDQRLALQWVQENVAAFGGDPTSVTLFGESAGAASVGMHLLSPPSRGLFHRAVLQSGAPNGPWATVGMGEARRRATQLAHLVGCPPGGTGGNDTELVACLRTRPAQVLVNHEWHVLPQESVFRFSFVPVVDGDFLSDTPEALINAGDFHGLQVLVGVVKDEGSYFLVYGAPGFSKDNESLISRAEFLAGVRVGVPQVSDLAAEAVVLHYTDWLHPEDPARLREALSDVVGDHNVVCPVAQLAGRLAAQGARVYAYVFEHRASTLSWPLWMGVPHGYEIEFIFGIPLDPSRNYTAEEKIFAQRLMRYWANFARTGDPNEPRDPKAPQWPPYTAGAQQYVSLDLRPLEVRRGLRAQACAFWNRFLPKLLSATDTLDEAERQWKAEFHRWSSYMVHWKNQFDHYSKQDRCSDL
Procedure: The AChE inhibition activity was measured based on the modified Ellman’s method. Tacrine was used as positive drug. The inhibition rates of AChE were calculated using Origin 8.0 software.

[2] = Cytotoxicity against HONE1, CCK-8 method; format: cell-based, human; conditions: CCK-8, OD at 450 nm, 72 h, average values of three parallel experiments
Procedure: as §1

In the case of `CCCCCCCC[C@H](C)[C@@H]1CC(=O)NCC(=O)N[C@@H](C(C)C)C(=O)N[C@H](CC(C)C)C(=O)N[C@@H](C)C(=O)N[C@@H](C(C)C)C(=O)O1` [Compound 4, Scopularide I], the IC50 [1] is reported as 10.1 µM, the IC50 (acetylcholinesterase) is reported as 15.6 µM and the IC50 [2] is reported as 13 µM.
